Laboratory results reported in publication PMC11206290, “Study of the Lipophilicity and ADMET Parameters of New Anticancer Diquinothiazines with Pharmacophore Substituents” (Pharmaceuticals, 2024).

Test system: lung cancer A549 cell line
Experiment: not given
Parameters: method as in PMID 30981160
Details: A549 cell line ref 24; cited from earlier work

Compound	IC50 [nM]
CN(C)CCCN1c2cnc3ccccc3c2Sc2cc3ccccc3nc21 [Compound 2, 7-(3'-Dimethylaminopropyl)diquino[3,2-b;3 ',4'-e]thiazine]	300

Test system: glioblastoma SNB-19 cell line
Experiment: not given
Parameters: method as in PMID 30981160
Details: SNB-19 cell line ref 24; cited from earlier work

Compound	IC50 [nM]
c1ccc2nc3c(cc2c1)Sc1c(ccc2ncccc12)N3CCN1CCCC1 [Compound 8, 7-(1'-Pyrolidinylethyl)diquino[3,2-b;6 ',5'-e]thiazine]	300

Test system: BCL-2 expression
Experiment: not given
Parameters: method as in PMID 30981160
Details: RT-QPCR, A549 and SNB-19 ref 24; cited from earlier work

Compound	Expression of BCL-2
c1ccc2nc3c(cc2c1)Sc1c(ccc2ncccc12)N3CCN1CCCC1 [Compound 8, 7-(1'-Pyrolidinylethyl)diquino[3,2-b;6 ',5'-e]thiazine]	markedly reduced

Test system: BAX expression
Experiment: not given
Parameters: method as in PMID 30981160
Details: RT-QPCR, cancer cell lines ref 24; cited from earlier work

Compound	Expression of BAX
c1ccc2nc3c(cc2c1)Sc1c(ccc2ncccc12)N3CCN1CCCC1 [Compound 8, 7-(1'-Pyrolidinylethyl)diquino[3,2-b;6 ',5'-e]thiazine]	markedly reduced

Test system: human lung carcinoma A549
Experiment: not given
Parameters: method as in PMID 36014495
Details: A549 ref 25; cited from earlier work

Compound	In vitro anticancer activity
CN(C)CCCN1c2cnc3ccccc3c2Sc2cc3ccccc3nc21 [Compound 2, 7-(3'-Dimethylaminopropyl)diquino[3,2-b;3 ',4'-e]thiazine]	significant in vitro anticancer activity

Test system: non-small lung carcinoma H1299
Experiment: not given
Parameters: method as in PMID 36014495
Details: H1299 ref 25; cited from earlier work

Compound	In vitro anticancer activity
CN(C)CCCN1c2cnc3ccccc3c2Sc2cc3ccccc3nc21 [Compound 2, 7-(3'-Dimethylaminopropyl)diquino[3,2-b;3 ',4'-e]thiazine]	significant in vitro anticancer activity

Test system: NHDF cells
Experiment: not given
Parameters: method as in PMID 36014495
Details: NHDF cells at IC50 doses against A549 or H1299 cells ref 25; cited from earlier work

Compound	Lethal effect
CN(C)CCCN1c2cnc3ccccc3c2Sc2cc3ccccc3nc21 [Compound 2, 7-(3'-Dimethylaminopropyl)diquino[3,2-b;3 ',4'-e]thiazine]	weak lethal effect

Test system: BEAS-2B cells
Experiment: not given
Parameters: method as in PMID 36014495
Details: BEAS-2B cells at IC50 doses against A549 or H1299 cells ref 25; cited from earlier work

Compound	Lethal effect
CN(C)CCCN1c2cnc3ccccc3c2Sc2cc3ccccc3nc21 [Compound 2, 7-(3'-Dimethylaminopropyl)diquino[3,2-b;3 ',4'-e]thiazine]	weak lethal effect

Test system: not listed separately
Experiment: physchem
Details: not given

Compound	chromatographic logP
CCN(CC)CCN1c2cnc3ccccc3c2Sc2cc3ccccc3nc21 [Compound 1, 7-(2'-Diethylaminoethyl)diquino[3,2-b;3 ',4'-e]thiazine]	4.64
CN(C)CCCN1c2cnc3ccccc3c2Sc2cc3ccccc3nc21 [Compound 2, 7-(3'-Dimethylaminopropyl)diquino[3,2-b;3 ',4'-e]thiazine]	4.08
c1ccc2nc3c(cc2c1)Sc1c(cnc2ccccc12)N3CCN1CCCCC1 [Compound 4, 7-(1'-Piperidinylethyl)diquino[3,2-b;3 ',4'-e]thiazine]	4.68
CN1CCCCC1CCN1c2cnc3ccccc3c2Sc2cc3ccccc3nc21 (stereo not drawn) [Compound 5, 7-(1'-M ethyl-2 '-piperydinylethyl)diquino[3,2-b;3 ',4'-e]thiazine]	4.89
CCN(CC)CCN1c2ccc3ncccc3c2Sc2cc3ccccc3nc21 [Compound 6, 7-(2'-Diethylaminoethyl)diquino[3,2-b;6 ',5'-e]thiazine]	4.94
CN(C)CCCN1c2ccc3ncccc3c2Sc2cc3ccccc3nc21 [Compound 7, 7-(3'-Dimethylaminopropyl)diquino[3,2-b;6 ',5'-e]thiazine]	4.46
c1ccc2nc3c(cc2c1)Sc1c(ccc2ncccc12)N3CCN1CCCCC1 [Compound 9, 7-(1'-Piperidinylethyl)diquino[3,2-b;6 ',5'-e]thiazine]	4.95
CN1CCCCC1CCN1c2ccc3ncccc3c2Sc2cc3ccccc3nc21 (stereo not drawn) [Compound 10, 7-(1'-M ethyl-2 '-piperydinylethyl)diquino[3,2-b;6 ',5'-e]thiazine]	5.13
CCN(CC)CCN1c2nc3ccccc3cc2Sc2ccc3cccnc3c21 [Compound 11, 14-(2'-Diethylaminoethyl)diquino[3,2-b;8 ',7'-e]thiazine]	4.84
CN(C)CCCN1c2nc3ccccc3cc2Sc2ccc3cccnc3c21 [Compound 12, 14-(3'-Dimethylaminopropyl)diquino[3,2-b;8 ',7'-e]thiazine]	4.28
c1ccc2nc3c(cc2c1)Sc1ccc2cccnc2c1N3CCN1CCCC1 [Compound 13, 14-(1'-Pyrolidinylethyl)diquino[3,2-b;8 ',7'-e]thiazine]	4.36
c1ccc2nc3c(cc2c1)Sc1ccc2cccnc2c1N3CCN1CCCCC1 [Compound 14, 14-(1'-Piperidinylethyl)diquino[3,2-b;8 ',7'-e]thiazine]	4.85
CN1CCCCC1CCN1c2nc3ccccc3cc2Sc2ccc3cccnc3c21 (stereo not drawn) [Compound 15, 14-(1'-M ethyl-2 '-piperydinylethyl)diquino[3,2-b;8 ',7'-e]thiazine]	5.12

Test system: not listed separately
Experiment: RP-TLC lipophilicity (RP-18 plates, acetone–TRIS buffer pH 7.4)
Details: C0 = −RM0/b
Description: RP-18 plates were used as the stationary phase, while organic modifiers containing acetone were used as the mobile phase. The linear relationship between RM0 and acetone concentration was determined on the basis of Equation (2) (Table 2). In addition to this, thanks to the relationship observed between RM0 and the slope of these linear plots (b), the lipophilicity parameter C0 was also determined (Table 2).
All chromatographic experiments were performed on a silica gel 60 RP-18 F254S (10 cm × 10 cm) RP-TLC plate (Merck, Darmstadt, Germany). The mobile phase was prepared by mixing the respective amount of aqueous TRIS (tris(hydroxymethyl)aminomethane) buffer, pH = 7.4 (ionic strength 0.2 M), to meet physiological conditions and acetone in a range from 50 to 80% (v/v) in increments of 5%. […] Before plate development, the chromatographic chambers were saturated with the mobile phase for 0.5 h. […] Each chromatographic experiment was run in triplicate, and then mean values of the retardation factor, i.e., RF values, were used to determine the RMW values of the compounds.
Next, the chromatographic data in the form of RM0 and coefficient b were used to calculate the lipophilicity parameter C0 [56] from the following Equation (3):(3) C0=−RM0/b

Compound	C0
CCN(CC)CCN1c2cnc3ccccc3c2Sc2cc3ccccc3nc21 [Compound 1, 7-(2'-Diethylaminoethyl)diquino[3,2-b;3 ',4'-e]thiazine]	0.7233
CN(C)CCCN1c2cnc3ccccc3c2Sc2cc3ccccc3nc21 [Compound 2, 7-(3'-Dimethylaminopropyl)diquino[3,2-b;3 ',4'-e]thiazine]	0.7359
c1ccc2nc3c(cc2c1)Sc1c(cnc2ccccc12)N3CCN1CCCC1 [Compound 3, 7-(1'-Pyrolidinylethyl)diquino[3,2-b;3 ',4'-e]thiazine]	0.7210
c1ccc2nc3c(cc2c1)Sc1c(cnc2ccccc12)N3CCN1CCCCC1 [Compound 4, 7-(1'-Piperidinylethyl)diquino[3,2-b;3 ',4'-e]thiazine]	0.7117
CN1CCCCC1CCN1c2cnc3ccccc3c2Sc2cc3ccccc3nc21 (stereo not drawn) [Compound 5, 7-(1'-M ethyl-2 '-piperydinylethyl)diquino[3,2-b;3 ',4'-e]thiazine]	0.7082
CCN(CC)CCN1c2ccc3ncccc3c2Sc2cc3ccccc3nc21 [Compound 6, 7-(2'-Diethylaminoethyl)diquino[3,2-b;6 ',5'-e]thiazine]	0.7588
CN(C)CCCN1c2ccc3ncccc3c2Sc2cc3ccccc3nc21 [Compound 7, 7-(3'-Dimethylaminopropyl)diquino[3,2-b;6 ',5'-e]thiazine]	0.7627
c1ccc2nc3c(cc2c1)Sc1c(ccc2ncccc12)N3CCN1CCCC1 [Compound 8, 7-(1'-Pyrolidinylethyl)diquino[3,2-b;6 ',5'-e]thiazine]	0.7565
c1ccc2nc3c(cc2c1)Sc1c(ccc2ncccc12)N3CCN1CCCCC1 [Compound 9, 7-(1'-Piperidinylethyl)diquino[3,2-b;6 ',5'-e]thiazine]	0.7562
CN1CCCCC1CCN1c2ccc3ncccc3c2Sc2cc3ccccc3nc21 (stereo not drawn) [Compound 10, 7-(1'-M ethyl-2 '-piperydinylethyl)diquino[3,2-b;6 ',5'-e]thiazine]	0.7599
CCN(CC)CCN1c2nc3ccccc3cc2Sc2ccc3cccnc3c21 [Compound 11, 14-(2'-Diethylaminoethyl)diquino[3,2-b;8 ',7'-e]thiazine]	0.7579
CN(C)CCCN1c2nc3ccccc3cc2Sc2ccc3cccnc3c21 [Compound 12, 14-(3'-Dimethylaminopropyl)diquino[3,2-b;8 ',7'-e]thiazine]	0.7458
c1ccc2nc3c(cc2c1)Sc1ccc2cccnc2c1N3CCN1CCCC1 [Compound 13, 14-(1'-Pyrolidinylethyl)diquino[3,2-b;8 ',7'-e]thiazine]	0.7672
c1ccc2nc3c(cc2c1)Sc1ccc2cccnc2c1N3CCN1CCCCC1 [Compound 14, 14-(1'-Piperidinylethyl)diquino[3,2-b;8 ',7'-e]thiazine]	0.7697
CN1CCCCC1CCN1c2nc3ccccc3cc2Sc2ccc3cccnc3c21 (stereo not drawn) [Compound 15, 14-(1'-M ethyl-2 '-piperydinylethyl)diquino[3,2-b;8 ',7'-e]thiazine]	0.7625

Same assay, conditions: RP-18, acetone–TRIS buffer pH 7.4; extrapolated to zero acetone concentration

Compound	RM0
CCN(CC)CCN1c2cnc3ccccc3c2Sc2cc3ccccc3nc21 [Compound 1, 7-(2'-Diethylaminoethyl)diquino[3,2-b;3 ',4'-e]thiazine]	3.45
CN(C)CCCN1c2cnc3ccccc3c2Sc2cc3ccccc3nc21 [Compound 2, 7-(3'-Dimethylaminopropyl)diquino[3,2-b;3 ',4'-e]thiazine]	3.01
c1ccc2nc3c(cc2c1)Sc1c(cnc2ccccc12)N3CCN1CCCC1 [Compound 3, 7-(1'-Pyrolidinylethyl)diquino[3,2-b;3 ',4'-e]thiazine]	3.05
c1ccc2nc3c(cc2c1)Sc1c(cnc2ccccc12)N3CCN1CCCCC1 [Compound 4, 7-(1'-Piperidinylethyl)diquino[3,2-b;3 ',4'-e]thiazine]	3.48
CN1CCCCC1CCN1c2cnc3ccccc3c2Sc2cc3ccccc3nc21 (stereo not drawn) [Compound 5, 7-(1'-M ethyl-2 '-piperydinylethyl)diquino[3,2-b;3 ',4'-e]thiazine]	3.64
CCN(CC)CCN1c2ccc3ncccc3c2Sc2cc3ccccc3nc21 [Compound 6, 7-(2'-Diethylaminoethyl)diquino[3,2-b;6 ',5'-e]thiazine]	3.68
CN(C)CCCN1c2ccc3ncccc3c2Sc2cc3ccccc3nc21 [Compound 7, 7-(3'-Dimethylaminopropyl)diquino[3,2-b;6 ',5'-e]thiazine]	3.31
c1ccc2nc3c(cc2c1)Sc1c(ccc2ncccc12)N3CCN1CCCC1 [Compound 8, 7-(1'-Pyrolidinylethyl)diquino[3,2-b;6 ',5'-e]thiazine]	3.48
c1ccc2nc3c(cc2c1)Sc1c(ccc2ncccc12)N3CCN1CCCCC1 [Compound 9, 7-(1'-Piperidinylethyl)diquino[3,2-b;6 ',5'-e]thiazine]	3.69
CN1CCCCC1CCN1c2ccc3ncccc3c2Sc2cc3ccccc3nc21 (stereo not drawn) [Compound 10, 7-(1'-M ethyl-2 '-piperydinylethyl)diquino[3,2-b;6 ',5'-e]thiazine]	3.83
CCN(CC)CCN1c2nc3ccccc3cc2Sc2ccc3cccnc3c21 [Compound 11, 14-(2'-Diethylaminoethyl)diquino[3,2-b;8 ',7'-e]thiazine]	3.60
CN(C)CCCN1c2nc3ccccc3cc2Sc2ccc3cccnc3c21 [Compound 12, 14-(3'-Dimethylaminopropyl)diquino[3,2-b;8 ',7'-e]thiazine]	3.17
c1ccc2nc3c(cc2c1)Sc1ccc2cccnc2c1N3CCN1CCCC1 [Compound 13, 14-(1'-Pyrolidinylethyl)diquino[3,2-b;8 ',7'-e]thiazine]	3.23
c1ccc2nc3c(cc2c1)Sc1ccc2cccnc2c1N3CCN1CCCCC1 [Compound 14, 14-(1'-Piperidinylethyl)diquino[3,2-b;8 ',7'-e]thiazine]	3.61
CN1CCCCC1CCN1c2nc3ccccc3cc2Sc2ccc3cccnc3c21 (stereo not drawn) [Compound 15, 14-(1'-M ethyl-2 '-piperydinylethyl)diquino[3,2-b;8 ',7'-e]thiazine]	3.82
CC(=O)Nc1ccccc1 [Standard I, acetanilide, reference compound]	0.78
O=C(O)c1ccccc1 [Standard II, benzoic acid, reference compound]	1.16
c1ccc2cc3ccccc3cc2c1 [Standard IV, anthracene, reference compound]	3.33
Clc1ccc(C(c2ccc(Cl)cc2)C(Cl)(Cl)Cl)cc1 [Standard V, p,p′-DDT, reference compound]	4.69

Same assay, conditions: slope of RM = RM0 + bC, compounds 1–15

Compound	b
CCN(CC)CCN1c2cnc3ccccc3c2Sc2cc3ccccc3nc21 [Compound 1, 7-(2'-Diethylaminoethyl)diquino[3,2-b;3 ',4'-e]thiazine]	−4.77
CN(C)CCCN1c2cnc3ccccc3c2Sc2cc3ccccc3nc21 [Compound 2, 7-(3'-Dimethylaminopropyl)diquino[3,2-b;3 ',4'-e]thiazine]	−4.09
c1ccc2nc3c(cc2c1)Sc1c(cnc2ccccc12)N3CCN1CCCC1 [Compound 3, 7-(1'-Pyrolidinylethyl)diquino[3,2-b;3 ',4'-e]thiazine]	−4.23
c1ccc2nc3c(cc2c1)Sc1c(cnc2ccccc12)N3CCN1CCCCC1 [Compound 4, 7-(1'-Piperidinylethyl)diquino[3,2-b;3 ',4'-e]thiazine]	−4.89
CN1CCCCC1CCN1c2cnc3ccccc3c2Sc2cc3ccccc3nc21 (stereo not drawn) [Compound 5, 7-(1'-M ethyl-2 '-piperydinylethyl)diquino[3,2-b;3 ',4'-e]thiazine]	−5.14
CCN(CC)CCN1c2ccc3ncccc3c2Sc2cc3ccccc3nc21 [Compound 6, 7-(2'-Diethylaminoethyl)diquino[3,2-b;6 ',5'-e]thiazine]	−4.85
CN(C)CCCN1c2ccc3ncccc3c2Sc2cc3ccccc3nc21 [Compound 7, 7-(3'-Dimethylaminopropyl)diquino[3,2-b;6 ',5'-e]thiazine]	−4.34
c1ccc2nc3c(cc2c1)Sc1c(ccc2ncccc12)N3CCN1CCCC1 [Compound 8, 7-(1'-Pyrolidinylethyl)diquino[3,2-b;6 ',5'-e]thiazine]	−4.60
c1ccc2nc3c(cc2c1)Sc1c(ccc2ncccc12)N3CCN1CCCCC1 [Compound 9, 7-(1'-Piperidinylethyl)diquino[3,2-b;6 ',5'-e]thiazine]	−4.88
CN1CCCCC1CCN1c2ccc3ncccc3c2Sc2cc3ccccc3nc21 (stereo not drawn) [Compound 10, 7-(1'-M ethyl-2 '-piperydinylethyl)diquino[3,2-b;6 ',5'-e]thiazine]	−5.04
CCN(CC)CCN1c2nc3ccccc3cc2Sc2ccc3cccnc3c21 [Compound 11, 14-(2'-Diethylaminoethyl)diquino[3,2-b;8 ',7'-e]thiazine]	−4.75
CN(C)CCCN1c2nc3ccccc3cc2Sc2ccc3cccnc3c21 [Compound 12, 14-(3'-Dimethylaminopropyl)diquino[3,2-b;8 ',7'-e]thiazine]	−4.25
c1ccc2nc3c(cc2c1)Sc1ccc2cccnc2c1N3CCN1CCCC1 [Compound 13, 14-(1'-Pyrolidinylethyl)diquino[3,2-b;8 ',7'-e]thiazine]	−4.21
c1ccc2nc3c(cc2c1)Sc1ccc2cccnc2c1N3CCN1CCCCC1 [Compound 14, 14-(1'-Piperidinylethyl)diquino[3,2-b;8 ',7'-e]thiazine]	−4.69
CN1CCCCC1CCN1c2nc3ccccc3cc2Sc2ccc3cccnc3c21 (stereo not drawn) [Compound 15, 14-(1'-M ethyl-2 '-piperydinylethyl)diquino[3,2-b;8 ',7'-e]thiazine]	−5.01

Same assay, conditions: slope of RM = RM0 + bC, standards I–V

Compound	-b
O=C(O)c1ccccc1 [Standard II, benzoic acid, reference compound]	0.0247
c1ccc2cc3ccccc3cc2c1 [Standard IV, anthracene, reference compound]	0.0412
